Measured values published in patent publication US6720330B2, “Somatostatin antagonists and agonists that act at the SST subtype 2 receptor” (Pfizer Inc., priority 2000, dated 2004).
Where no end group is shown, it is not given here.

System: somatostatin receptor
Assay: Rat pituitary assay for somatostatin receptor antagonists (cAMP content of GH4C1 cells)
Type: cell-based
Conditions: GH4C1 pituitary cell line; 100 nM VIP, 10 nM somatostatin 14

Compound | cAMP content of the GH4C1 cells
C[C@H](N)C(=O)NCC(=O)N[C@H]1CSSC[C@@H](C(=O)O)NC(=O)[C@H](CO)NC(=O)[C@H]([C@@H](C)O)NC(=O)[C@H](Cc2ccccc2)NC(=O)[C@H]([C@@H](C)O)NC(=O)[C@H](CCCCN)NC(=O)[C@H](Cc2c[nH]c3ccccc23)NC(=O)[C@H](Cc2ccccc2)NC(=O)[C@H](Cc2ccccc2)NC(=O)[C@H](CC(N)=O)NC(=O)[C@H](CCCCN)NC1=O [somatostatin, somatostatin 14] | partial inhibition
vasoactive intestinal peptide (HSDAVFTDNYTRLRKQMAVKKYLNSILN; ends and bridges not checked; UniProt P01282 125-152, looked up) [VIP, endogenous peptide that stimulates GH secretion] | increased cAMP content
